Experimental data published in US20060286159A1 (priority 2003, published 2006).
Entries after “also recorded” stand apart in the source; their conditions may differ.

Tests used:
[1] = system: de Quervain's tendinopathy in the right extensor tendons of the thumb; experiment: Example 4: patient case, de Quervain's tendinopathy; type: in vivo, human
Text: A patient suffering de Quervain's tendinopathy in the right extensor tendons of the thumb applies a transdermal patch delivering 10 mcg/hr nitroglycerin for a period of 24 weeks. This condition can be caused due to the arrival of a new baby and the consequent carrying as an unusual daily activity, and as is common, physical therapy and intermittent use of a wrist splint may provide little relief of symptoms.

[2] = system: chronic extensor tendinopathy at the elbow; experiment: Extensor tendinopathy (tennis elbow) clinical trial (randomized, double blind, placebo controlled)
[3] = system: chronic overuse tendinopathies; experiment: The three tendinopathy clinical trials taken together; type: in vivo, human
Text: Three clinical trials were approved by an institutional Ethics Committee. Patients with clinical diagnoses of the specified tendinopathies were recruited through newspaper advertisements and private consulting rooms. All subjects were over 18 years of age, and gave written informed consent.
The patients were randomly allocated into two groups. […] The active and placebo patches were indistinguishable from one another. The randomization was controlled by the senior pharmacist at the institution who also supervised the packaging of transdermal patches and their distribution to patients. Both the patients and the clinical examiner were blinded as to which group the patients were in, i.e. double-blind.
Patients were instructed in the application of the patches at their initial visit. They were informed that the dosing regimen was one quarter of a transdermal patch to be applied daily to the skin area closest to the affected tendon. The patches were to be left in situ for 24 hours and then replaced with a new quarter patch. […] Patients were instructed to rotate the patch application site around this point with each new patch application for the six-month study duration in an effort to minimize application site irritation.
A single examiner assessed all patients and recorded information on clinical outcome measures. All clinical assessments were repeated at week 0, 2, 6, 12, and 24 with an identical format. Records of headaches, paracetamol use, and compliance with patch application and the tendon rehabilitation program were also made at these scheduled visits. Patients were excluded from the trials for non-compliance at any two visits.
Outcome measures were analyzed with Sigmastat 2.0 statistical software (Jandel Scientific, California, U.S.A) using Mann-Whitney rank sum tests to compare differences between groups, and using the Wilcoxon sign rank test to compare differences within the groups. The level of significance was defined at p=0.05. A Chi square analysis of patient reported symptom outcomes at week 24 was performed. Effect size estimates were calculated by dividing the mean z-score, calculated from all outcome measures at week 24, by the square root of the sample size to given a general measure of the overall effect of the patch on pain, tendon force and function.

chronic tennis elbow = experiment: Example 5: patient case, chronic tennis elbow; type: in vivo, human; conditions: patch 60 mcg/hr for 2 weeks
Text: A patient suffering from chronic tennis elbow applies a transdermal patch delivering 60 mcg/hr nitroglycerin for a period of 2 weeks.

[4] = system: persistent active tendinopathy of the left Achilles tendon; experiment: Example 3: patient case, persistent active tendinopathy of the left Achilles tendon; type: in vivo, human; conditions: patch 30 mcg/hr for 8 weeks
Text: A patient suffering from persistent active tendinopathy of the left Achilles tendon applies a transdermal patch delivering 30 mcg/hr nitroglycerin for a period of 8 weeks.

[5] = GTN group, range over three trials
[6] = GTN groups, range over three trials

Structure (SMILES): O=[N+]([O-])OCC(CO[N+](=O)[O-])O[N+](=O)[O-] [glyceryl trinitrate, 1,2,3-propanetriol trinitrate]
- pain after administration is stopped ([1]; 2 years after stop, negative Finklestein test): continue to have reduced pain
- pain during administration ([1]; patch 10 mcg/hr for 24 weeks, person): decrease in pain within one day
- Headache (Days) Average ([2]; GTN group): GTN 5 Days
- Headache (Days) Median ([2]; GTN group): GTN 3 Days
- Headache (Days) Total ([2]; GTN group): 136 days
- Headache: percentage of patients ([2]; GTN group): 63%
- No Side Effects ([2]; GTN group): GTN 35%
- Other Noted Side-Effects: Increase Axillary Sweating ([2]; GTN group): Sweating 2%
- Pain Outcomes: elbow pain with activity vs placebo ([2]; Week 2 (p=0.01)): significant decrease; also recorded: Decreased
- Tenderness Outcomes: lateral epicondylar tenderness vs placebo ([2]; Week 6 (p=0.02) / 12 (p=0.02)): significant decreases; also recorded: significantly less; also recorded: Decreased
- Force Outcomes: ORI-TETS mean peak force vs placebo ([2]; Week 24 (p=0.03)): significant increase; also recorded: Increased Mean
- Force Outcomes: ORI-TETS mean total work vs placebo ([2]; Week 24 (p=0.03)): significant increase; also recorded: Increased Mean
- Other Noted Side-Effects: Rash ([2]; application site, GTN group): Rash 21%,
- number needed to treat (NNT) ([2]; excellent result at 24 weeks, Chi square p=0.005): 4.8
- Discontinuations: Headache ([2]; patients, all GTN group): Headache 2
- Discontinuations: Rash ([2]; patients, all GTN group): Rash 2,
- Paracetamol Average ([2]; used for headache, GTN group): GTN 8 tablets
- Paracetamol Median ([2]; used for headache, GTN group): GTN 4 tablets
- Paracetamol Total ([2]; used for headache, GTN group): GTN 214 tablets
- Improved Patient Outcomes ([2]; week 24, more patients asymptomatic with activities of daily living than placebo, 1.25 mg/24 h patch + rehabilitation): 21%
- patients with excellent improvement, patient reported ([2]; week 24, placebo 60%): 81%
- headache as a side-effect ([3]; GTN group): majority of patients
- average number of days of headache [3, 5]: 5 to 6 days
- headache, patients [3, 5]: 53-76%
- median number of days of headache [3, 5]: 3 to 4 days
- headaches that occurred within the first two weeks of the trial ([3]; GTN groups): 72%
- average paracetamol usage [3, 6]: 7-14 tablets
- median paracetamol usage [3, 6]: 2-10 tablets
- patients that experienced no side-effects [3, 6]: 30-44%
- total paracetamol usage [3, 6]: 138-237 tablets
- patients experiencing application site rash ([3]; GTN groups, range over three trials, placebo 7-12%): 8-21%
- tendon pain with activity vs placebo ([3]; all three trials, timing varied): significantly improved
- chance of being asymptomatic with activities of daily living vs placebo (Chi square) ([3]; at 24 weeks, all three clinical trials, p=0.001): significantly increased
- more patients than in the placebo group asymptomatic with activities of daily living (rated tendon excellent) ([3]; completion of the trials, range over three trials): 21-29%
- changes in patient success rates (binomial effect size displays) ([3]; equivalent to effect sizes at week 24): 12-26%
- other side-effects (increase in pre-existing tinnitus, ipsilateral axillary sweating, apprehension): severity and reversibility ([3]; human, in vivo): None of these were severe, and all were reversible on discontinuation of the medication
- severity of rash vs placebo ([3]; human, in vivo): greater severity of rash
- patients discontinued due to headache ([3]; in each clinical trial): 1-2 patients
- severity of headaches vs placebo ([3]; in general): more severe headaches
- patients discontinued during the trials ([3]; of clinical trial patients, all in GTN groups, headache or application site rash): 4-6%
- patients discontinued due to rash, total ([3]; three trials): five
- patients discontinued for recurrent facial flushing ([3]; type 2 diabetic, reversible on discontinuation): One
- decrease of patient-rated pain scores, range over the trials ([3]; week 0 compared with week 24): 64-67%
- increase of force outcome measures, range over the trials ([3]; week 0 compared with week 24): 33-38%
- increase of force outcome measures, average ([3]; week 0 compared with week 24, placebo […]%): 37%
- decrease of patient-rated pain scores (with activity, at night, at rest), average ([3]; week 0 compared with week 24, placebo 30%): 65%
- force outcome measures vs placebo ([3]; week 24, all three trials): significant increases
- mean estimated effect sizes ([3]; week 24, range over three trials): 0.12-0.26
- continuation of the reduction of symptoms after discontinuance (chronic tennis elbow): at least two weeks
- pain and tenderness of the ankle after discontinuation ([4]; eight weeks following discontinuation): continue to feel decreased pain and tenderness of the ankle
- pain and tenderness of the ankle during therapy ([4]; person): reduction of pain and tenderness of the ankle by day 2 of therapy
